Key:
MOLM14 (D835Y) cells = assay: Combination drug screening, Cell Titer Glo, MOLM14 (D835Y) cells; details: MOLM14(D835Y) cells; for Excess HSA Score: sum score, listed as compound in combination with Compound 106, 48 hours;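 as to all read-outs here: MOLM14 cells with FLT3 ITD plus D835Y, 500 per well in 1536-well plates, 10-point dose ranges, luminescent viability after 48 h, negative Excess HSA indicates synergy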
THP1 cells = assay: Combination drug screening, Cell Titer Glo, THP1 cells; details: THP1 cells; for Excess HSA Score: sum score, 10 × 10 dataset, 48 hours;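 as to all read-outs here: luminescence read out in 1536-well plates seeded with 500 THP1 cells per well, each drug spanning a 10-point concentration range in the combination matrix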
[1] = combination therapy of CG-806 (a FLT3/BTK inhibitor) and the named additional compound, 110 × 10 dataset
[2] = combination therapy of Compound 45a and the named additional compound, 110 × 10 dataset
[3] = combination therapy of Compound 46a and the named additional compound, 110 × 10 dataset
[4] = combination therapy of Compound 47a and the named additional compound, 110 × 10 dataset
[5] = combination therapy of Compound 48a and the named additional compound, 110 × 10 dataset
[6] = combination therapy of Compound 102 and the named additional compound, 10 × 10 dataset
[7] = combination therapy of Gilteritinib (a FLT3/AXL inhibitor) and the named additional compound, 110 × 10 dataset
[8] = combination therapy of PF-06650833 (an IRAK4 selective inhibitor) and the named additional compound, 110 × 10 dataset
[9] = combination therapy of Quizartinib (a FLT3/Kit/PDGFRa inhibitor) and the named additional compound, 110 × 10 dataset
[10] = combination therapy of emavusertib (CA-4948) (a FLT3/IRAK4 inhibitor) and the named additional compound, 110 × 10 dataset
[11] = listed as compound in combination with CG-806 (a FLT3/BTK inhibitor)
[12] = listed as compound in combination with Compound 45a
[13] = listed as compound in combination with Compound 46a
[14] = listed as compound in combination with Compound 47a
[15] = listed as compound in combination with Compound 48a
[16] = listed as compound in combination with Compound 102
[17] = listed as compound in combination with Compound 106
[18] = listed as compound in combination with Gilteritinib (a FLT3/AXL inhibitor)
[19] = listed as compound in combination with PF-06650833 (an IRAK4 selective inhibitor)
[20] = listed as compound in combination with Quizartinib (a FLT3/Kit/PDGFRa inhibitor)
[21] = listed as compound in combination with emavusertib (CA-4948) (a FLT3/IRAK4 inhibitor)

Row | Compound | Sum Excess HSA Score (MOLM14 (D835Y) cells; [1]) | Sum Excess HSA Score (MOLM14 (D835Y) cells; [2]) | Sum Excess HSA Score (MOLM14 (D835Y) cells; [3]) | Sum Excess HSA Score (MOLM14 (D835Y) cells; [4]) | Sum Excess HSA Score (MOLM14 (D835Y) cells; [5]) | Sum Excess HSA Score (MOLM14 (D835Y) cells; [6]) | Sum Excess HSA Score (MOLM14 (D835Y) cells; [7]) | Sum Excess HSA Score (MOLM14 (D835Y) cells; [8]) | Sum Excess HSA Score (MOLM14 (D835Y) cells; [9]) | Sum Excess HSA Score (MOLM14 (D835Y) cells; [10]) | Excess HSA Score (MOLM14 (D835Y) cells; 10 × 10 dataset) | Excess HSA Score (THP1 cells; [11]) | Excess HSA Score (THP1 cells; [12]) | Excess HSA Score (THP1 cells; [13]) | Excess HSA Score (THP1 cells; [14]) | Excess HSA Score (THP1 cells; [15]) | Excess HSA Score (THP1 cells; [16]) | Excess HSA Score (THP1 cells; [17]) | Excess HSA Score (THP1 cells; [18]) | Excess HSA Score (THP1 cells; [19]) | also measured
1 | CC(C)Nc1cc(-c2c[nH]c(C(=O)N[C@H](CO)c3cccc(Cl)c3)c2)c(Cl)cn1 [Ulixertinib, ulixertinib] | 258.3 | 554.5 | −208.5 | 112.6 | −576.8 | −768.5 | 29.29 | 548.6 | 1180 | −352.8 | −71.53 | 518 | −14.94 | 260.4 | −663.3 | −24.53 | −301.9 | −630.1436 | 690.556 | 552.8 | Excess HSA Score (THP1 cells; [20]): −530.2; Excess HSA Score (THP1 cells; [21]): −230.3
2 | CC1(C)CCC(CN2CCN(c3ccc(C(=O)NS(=O)(=O)c4ccc(NCC5CCOCC5)c([N+](=O)[O-])c4)c(Oc4cnc5[nH]ccc5c4)c3)CC2)=C(c2ccc(Cl)cc2)C1 [Venetoclax (ABT-199), Venetoclax] | −751 | −1552 | −1667 | −1849 | −1280.6361 | −966.5606 | −1406 | −1578 | −1656 | −1038 | −1540 | −1431.1287 | −1070 | −1405 | −1419 | −628.4379 | −1775 | −1478 | −1448 | −429.3 | Comments (synergistic / antagonistic) (MOLM14 (D835Y) cells; [2]): Synergistic (a negative Excess HSA value is indicative of synergy); Comments (synergistic / antagonistic) (MOLM14 (D835Y) cells; [3]): Synergistic (a negative Excess HSA value is indicative of synergy); Comments (synergistic / antagonistic) (MOLM14 (D835Y) cells; [4]): Synergistic (a negative Excess HSA value is indicative of synergy); Comments (synergistic / antagonistic) (MOLM14 (D835Y) cells; [5]): Synergistic (a negative Excess HSA value is indicative of synergy); Comments (synergistic / antagonistic) (MOLM14 (D835Y) cells; [6]): Synergistic (a negative Excess HSA value is indicative of synergy); Comments (synergistic / antagonistic) (MOLM14 (D835Y) cells; [7]): Synergistic (a negative Excess HSA value is indicative of synergy); Comments (synergistic / antagonistic) (MOLM14 (D835Y) cells; [8]): Synergistic (a negative Excess HSA value is indicative of synergy); Comments (synergistic / antagonistic) (MOLM14 (D835Y) cells; [9]): Synergistic (a negative Excess HSA value is indicative of synergy); Comments (synergistic / antagonistic) (MOLM14 (D835Y) cells; [10]): Synergistic (a negative Excess HSA value is indicative of synergy); Comments (MOLM14 (D835Y) cells; combination with Compound 106): Synergistic (a negative Excess HSA value is indicative of synergy); Comments (THP1 cells; combination with CG-806): Synergistic (a negative Excess HSA value is indicative of synergy); Comments (THP1 cells; combination with Compound 45a): Synergistic (a negative Excess HSA value is indicative of synergy); Comments (THP1 cells; combination with Compound 46a): Synergistic (a negative Excess HSA value is indicative of synergy); Comments (THP1 cells; combination with Compound 47a): Synergistic (a negative Excess HSA value is indicative of synergy); Comments (THP1 cells; combination with Compound 102): Synergistic (a negative Excess HSA value is indicative of synergy); Comments (THP1 cells; combination with Compound 106): Synergistic (a negative Excess HSA value is indicative of synergy); Comments (THP1 cells; combination with Gilteritinib): Synergistic (a negative Excess HSA value is indicative of synergy); Excess HSA Score (THP1 cells; [20]): −216; Excess HSA Score (THP1 cells; [21]): −526.5

Source: patent US20250368648A1, “MULTI-CYCLIC IRAK AND FLT3 INHIBITING COMPOUNDS AND USES THEREOF” (CHILDREN'S HOSPITAL MEDICAL CENTER, priority 2022, published 2025)
